# From US9296831B2, “Herbal extract composition for the treatment of diabetes and a method of extracting the same” (priority 2014, dated 2016)
# Columns and labels:
# Wistar rats = test: Post prandial blood sugar (BS) levels in STZ-induced diabetic rats; format: in vivo, rat; conditions: oligosaccharide 16 mg/kg, metformin 15 mg/kg/day
# Experimental: According to one embodiment herein, the oligosaccharide is administered to rats after purification and structural analysis of the oligosaccharide. The eight week old Wistar rats, weighing from 200-250 gm are purchased from Pasteur institute (Tehran, Iran). The animals are kept on a standard diet with free access to water and food throughout the study. All treatments and maintenance of the animals are carried out in accordance with the principles of laboratory animal care. Further diabetes is induced in the animals except the controls by a single intraperitoneal injection of STZ (60 mg/kg) freshly dissolved in citrate buffer of 5 mmol/L and a pH of 4.5. After an elapse of 48 hrs since the injection of streptozocin (STZ), the diabetes is confirmed by measuring the glucose levels in the blood samples. The blood samples are obtained from the retro-orbital sinus of the animals under diethyl ether-induced light anesthesia with GlucoDr Glucometer (Allmedicus; Germany). […] The first group comprises ten rats and is administered with the oligosaccharide. The second group comprises eight rats and the rats in the second group are injected with the citrate buffer. This group is called a negative control group. The amount of citrate buffer administered to the second group and the amount of oligosaccharide administered to the first group are same or equal. The rats in the oligosaccharide treated groups are given different doses (8-40 mg/kg) of the pure materials dissolved in distilled water twice daily for 21 days starting from the third day since the STZ injection. […] The molecules of glybenclamide or metformin are administered intraperitoneally or by oral gavage and stopped after three weeks. The water intake and urine volume are measured throughout the study. Twenty four hours after the administration of the last dose of oligosaccharide, the blood glucose is monitored in fasting and non-fasting states. The body and pancreas weights are compared. Oral glucose tolerance test, insulin tolerance test, gluconeogenesis inhibition test and alfa glucosidase inhibition tests are conducted. […] The untreated negative controls received no molecule, while the test group received oligosaccharide and the positive control received either metformin or glybenclamide. FIG. 2 illustrates a flow chart indicating the administration and testing of the anti-diabetic effect of oligosaccharide molecule, according to an embodiment herein. The process of administering and testing the antidiabetic effect of oligosaccharide molecule comprises purchasing eight week old male Wistar rats weighing 200-250 gm (201). The rats are purchased from Pasteus Institute (Tehran, Iran). The rats are kept on a standard diet with free access to water and food throughout the study. All the treatments and maintenance of the animals is carried out in accordance with the principles of laboratory animal care. Inducing diabetes by stretozotocin (STZ) 60 mg/kg injection (202). The diabetes is induced in all rats except in the rats in the control group by intraperitoneal injection of STZ freshly dissolved in 5 mmol/L citrate buffer (pH 4.5). The diabetes is confirmed 48 hrs after STZ infection by measuring blood glucose levels (203). The blood from rats is obtained from retro-orbital sinus of the animals under diethyl ether induced light anesthesia with GlucoDr Glucometer (Allmedicus; Germany). […] The rats in positive control, negative control and oligosaccharide treated group are divided into different groups (204). The rats in the negative control group are injected with citrate buffer for three weeks (205). The rats in the positive control group are injected with glybendamide and metformin for three weeks (206). The rats in the oligosaccharide group are injected with different concentration (8-40 mg/kg) of oligosaccharide for three weeks (207). The oligosaccharide is dissolved in distilled water and administered twice daily after STZ injection induced diabetes. […]
# rats [1] = test: Sub acute toxicity test, hematology, 15 days; format: in vivo
# Experimental: (§1) According to one embodiment herein, the acute, sub acute and sub chronic toxicological tests are performed based on the standard protocols. For the acute sequential design procedure of LD-50, limit dose test were done and mortality rate is recorded up to 14 days. […] For the animals in the control groups, distilled water is administered by the same protocols. At the end of the time period, the rats are killed and the body specimens are collected for the determination of biochemical, hematological and pathological parameters.
# rats [2] = test: Sub acute toxicity test, biochemistry, 15 days; format: in vivo
# Experimental: as §1
# rats [3] = conditions: rat, in vivo
# Experimental: According to one embodiment herein, the acute, sub acute and sub chronic toxicological tests are performed based on the standard protocols. For the acute sequential design procedure of LD-50, limit dose test were done and mortality rate is recorded up to 14 days. Sub acute and sub chronic toxicological tests are performed by an administration of 160 mg/kg (10 folds of therapeutics dose) for 21 and 52 days respectively. For the animals in the control groups, distilled water is administered by the same protocols. At the end of the time period, the rats are killed and the body specimens are collected for the determination of biochemical, hematological and pathological parameters.
# [4] = 21 days after treatment, glybenclamide 5 mg/kg/day
# [5] = 30 days after withdrawal of the treatment, glybenclamide 5 mg/kg/day
# [6] = before treatment (baseline), glybenclamide 5 mg/kg/day groups
structure (smiles),measurement,setting,value
"COc1ccc(Cl)cc1C(=O)NCCc1ccc(S(=O)(=O)NC(=O)NC2CCCCC2)cc1 [Glybenclamide, glybenclamide]","BS levels mg/dl (SD), post prandial",Wistar rats; [4],250(63) mg/dl
same,"BS levels mg/dl (SD), post prandial",Wistar rats; [5],363(64) mg/dl
same,"BS levels mg/dl (SD), post prandial",Wistar rats; [6],360(41) mg/dl
"CN(C)C(=N)N=C(N)N [Metformin, metformin]","BS levels mg/dl (SD), post prandial",Wistar rats; [4],261(49) mg/dl
same,"BS levels mg/dl (SD), post prandial",Wistar rats; [5],375(59) mg/dl
same,"BS levels mg/dl (SD), post prandial",Wistar rats; [6],375(57)(20) mg/dl
COC(=O)C1OC(O)C(O)C(O)C1OC1OC(C(=O)OC)C(OC2OC(C(=O)OC)C(OC3OC(C(=O)O)C(O)C(O)C3O)C(O)C2OC(C)=O)C(O)C1O (centres unmarked) [Oligosaccharide],"BS levels mg/dl (SD), post prandial",Wistar rats; [4],150(21) mg/dl
same,"BS levels mg/dl (SD), post prandial",Wistar rats; [5],144(18) mg/dl
same,"BS levels mg/dl (SD), post prandial",Wistar rats; [6],364(41) mg/dl
same,HCT,rats [1]; 16 mg/kg,42.8 ± 2.9%
same,Hb,rats [1]; 16 mg/kg,14.3 ± 0.6 g/dL
same,MCH,rats [1]; 16 mg/kg,18.1 ± 4.9 pg
same,MCHC,rats [1]; 16 mg/kg,33.8 ± 4.7 g/dL
same,MCV,rats [1]; 16 mg/kg,54.51 ± 3.2 fL
same,PLT,rats [1]; 16 mg/kg,9.4 ± 1.3 ×105/ml
same,RBC,rats [1]; 16 mg/kg,8.08 ± 1.3 ×106/ml
same,WBC,rats [1]; 16 mg/kg,10.5 ± 3.3 ×103/ml
same,HCT,rats [1]; 160 mg/kg,42.6 ± 1.1%
same,Hb,rats [1]; 160 mg/kg,14.1 ± 0.3 g/dL
same,MCH,rats [1]; 160 mg/kg,18.3 ± 3.9 pg
same,MCHC,rats [1]; 160 mg/kg,33.9 ± 5.1 g/dL
same,MCV,rats [1]; 160 mg/kg,55.9 ± 2.5 fL
same,PLT,rats [1]; 160 mg/kg,9.3 ± 2.1 ×105/ml
same,RBC,rats [1]; 160 mg/kg,7.98 ± 1.9 ×106/ml
same,WBC,rats [1]; 160 mg/kg,8.9 ± 2.9 ×103/ml
same,ALP,rats [2]; 16 mg/kg,442.69 ± 90.54 u/l
same,ALT,rats [2]; 16 mg/kg,146.33 ± 18.41 u/l
same,AST,rats [2]; 16 mg/kg,169.41 ± 17.5 u/l
same,Alb,rats [2]; 16 mg/kg,3.22 ± 0.04 g/dL
same,CPK,rats [2]; 16 mg/kg,1341.5 ± 311.12 u/l
same,Chol,rats [2]; 16 mg/kg,82.15 ± 22.11 mg/dL
same,Cr,rats [2]; 16 mg/kg,0.66 ± 0.02 mg/dL
same,Glucose,rats [2]; 16 mg/kg,113.61 ± 16.4 mg/dL
same,LDH,rats [2]; 16 mg/kg,2019.7 ± 390.4 u/l
same,TG,rats [2]; 16 mg/kg,98.41 ± 15.63 mg/dL
same,Urea,rats [2]; 16 mg/kg,54.71 ± 9.98 mg/dL
same,Uric acid,rats [2]; 16 mg/kg,1.62 ± 0.32 mg/dL
same,ALP,rats [2]; 160 mg/kg,351.37 ± 63.21 u/l
same,ALT,rats [2]; 160 mg/kg,142.31 ± 21.32 u/l
same,AST,rats [2]; 160 mg/kg,177.51 ± 24.2 u/l
same,Alb,rats [2]; 160 mg/kg,3.24 ± 0.05 g/dL
same,CPK,rats [2]; 160 mg/kg,1398.3 ± 115.5 u/l
same,Chol,rats [2]; 160 mg/kg,81.11 ± 14.31 mg/dL
same,Cr,rats [2]; 160 mg/kg,0.65 ± 0.04 mg/dL
same,Glucose,rats [2]; 160 mg/kg,109.3 ± 10.4 mg/dL
same,LDH,rats [2]; 160 mg/kg,2110.5 ± 504.7 u/l
same,TG,rats [2]; 160 mg/kg,97.99 ± 17.49 mg/dL
same,Urea,rats [2]; 160 mg/kg,54.87 ± 6.63 mg/dL
same,Uric acid,rats [2]; 160 mg/kg,1.58 ± 0.25 mg/dL
same,abnormality in pathologic studies,rats [3],no abnormality is observed
